How the values were obtained:
liver = conditions: in vivo; cited from earlier work
rodent = conditions: in vivo; cited from earlier work
[1] = test system: mRNA expressed from the genes (A) to (D) in rat liver; assay: Behavior of genes (mRNA expression level, oligo-DNA microarray) in rat liver after 28-day oral administration; assay type: in vivo
Outline: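 Liver mRNA levels were compared with matched vehicle groups, with a shift of at least 1.5-fold up or down deemed significant unless its direction disagreed with other carcinogens. Test substances were dosed orally by gavage daily for 28 days to 5-week-old male F344 rats, four per group.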

[2] = gene group (A), Unigene No. Rn.167075, mRNA vs vehicle control group
[3] = gene group (C), Unigene No. Rn.120914, mRNA vs vehicle control group
[4] = (C), Unigene Rn.120914, defined direction +, rat liver, oral once daily 28 days

Cc1c(N)cccc1N [TS005, 2,6-Diaminotoluene]
Liver carcinogenicity (liver): Cr−
Carcinogenicity (rodent): C−
Behavior of gene caused by administration of chemical substance, Gene No. 4846 ([1]; gene group (A), Unigene No. Rn.144554, mRNA vs vehicle control group): −
Behavior of gene caused by administration of chemical substance, Gene No. 2026 [1, 2]: −
Behavior of gene caused by administration of chemical substance, Gene No. 4218 [1, 2]: −
Behavior of gene caused by administration of chemical substance, Gene No. 6182 ([1]; gene group (A), Unigene No. Rn.5834, mRNA vs vehicle control group): −
Behavior of gene caused by administration of chemical substance, Gene No. 5600 ([1]; gene group (A), Unigene No. Rn.9836, mRNA vs vehicle control group): −
Behavior of gene caused by administration of chemical substance, Gene No. 1494 ([1]; gene group (B), Unigene No. Rn.1430, mRNA vs vehicle control group): −
Behavior of gene caused by administration of chemical substance, Gene No. 2045 ([1]; gene group (B), Unigene No. Rn.19329, mRNA vs vehicle control group): −
Behavior of gene caused by administration of chemical substance, Gene No. 2203 ([1]; gene group (B), Unigene No. Rn.21240, mRNA vs vehicle control group): −
Behavior of gene caused by administration of chemical substance, Gene No. 533 ([1]; gene group (C), Unigene No. Rn.106184, mRNA vs vehicle control group): −
Behavior of gene caused by administration of chemical substance, Gene No. 725 ([1]; gene group (C), Unigene No. Rn.108075, mRNA vs vehicle control group): −
Behavior of gene caused by administration of chemical substance, Gene No. 1163 ([1]; gene group (C), Unigene No. Rn.11766, mRNA vs vehicle control group): −
Behavior of gene caused by administration of chemical substance, Gene No. 4973 ([1]; gene group (C), Unigene No. Rn.118529, mRNA vs vehicle control group): −
Behavior of gene caused by administration of chemical substance, Gene No. 4095 ([1]; gene group (C), Unigene No. Rn.119024, mRNA vs vehicle control group): −
Behavior of gene caused by administration of chemical substance, Gene No. 1334 [1, 3]: −
Behavior of gene caused by administration of chemical substance, Gene No. 6620 [1, 3]: −
Behavior of gene caused by administration of chemical substance, Gene No. 6303 ([1]; gene group (C), Unigene No. Rn.123063, mRNA vs vehicle control group): −
Behavior of gene caused by administration of chemical substance, Gene No. 5878 ([1]; gene group (C), Unigene No. Rn.143213, mRNA vs vehicle control group): −
Behavior of gene caused by administration of chemical substance, Gene No. 1131 ([1]; gene group (C), Unigene No. Rn.144946, mRNA vs vehicle control group): +
Behavior of gene caused by administration of chemical substance, Gene No. 1562 ([1]; gene group (C), Unigene No. Rn.14744, mRNA vs vehicle control group): −
Behavior of gene caused by administration of chemical substance, Gene No. 1741 ([1]; gene group (C), Unigene No. Rn.1647, mRNA vs vehicle control group): −
Behavior of gene caused by administration of chemical substance, Gene No. 893 ([1]; gene group (C), Unigene No. Rn.164817, mRNA vs vehicle control group): −
Behavior of gene caused by administration of chemical substance, Gene No. 6026 ([1]; gene group (C), Unigene No. Rn.167685, mRNA vs vehicle control group): −
Behavior of gene caused by administration of chemical substance, Gene No. 154 ([1]; gene group (C), Unigene No. Rn.185941, mRNA vs vehicle control group): −
Behavior of gene caused by administration of chemical substance, Gene No. 1993 ([1]; gene group (C), Unigene No. Rn.18728, mRNA vs vehicle control group): −
Behavior of gene caused by administration of chemical substance, Gene No. 813 ([1]; gene group (C), Unigene No. Rn.201760, mRNA vs vehicle control group): −
Behavior of gene caused by administration of chemical substance, Gene No. 2494 ([1]; gene group (C), Unigene No. Rn.23969, mRNA vs vehicle control group): −
Behavior of gene caused by administration of chemical substance, Gene No. 2546 ([1]; gene group (C), Unigene No. Rn.24561, mRNA vs vehicle control group): −
Behavior of gene caused by administration of chemical substance, Gene No. 3776 ([1]; gene group (C), Unigene No. Rn.43232, mRNA vs vehicle control group): −
Behavior of gene caused by administration of chemical substance, Gene No. 3929 ([1]; gene group (C), Unigene No. Rn.4620, mRNA vs vehicle control group): −
Behavior of gene caused by administration of chemical substance, Gene No. 1119 ([1]; gene group (C), Unigene No. Rn.9757, mRNA vs vehicle control group): −
Behavior of gene caused by administration of chemical substance, Gene No. 6742 ([1]; gene group (C), Unigene No. Rn.9779, mRNA vs vehicle control group): −
Behavior of gene caused by administration of chemical substance, Gene No. 5634 ([1]; gene group (C), Unigene No. Rn.9862, mRNA vs vehicle control group): −
Behavior of gene caused by administration of chemical substance, Gene No. 5726 ([1]; gene group (D), Unigene No. Rn.9939, mRNA vs vehicle control group): −

c1ccc2ncccc2c1 [TS006, Quinoline]
Liver carcinogenicity (liver): Cr+
Carcinogenicity (rodent): C+
Behavior of gene caused by administration of chemical substance, Gene No. 4846 ([1]; (A), Unigene Rn.144554, defined direction +, rat liver, oral once daily 28 days): +
Behavior of gene caused by administration of chemical substance, Gene No. 4218 ([1]; (A), Unigene Rn.167075, defined direction +, rat liver, oral once daily 28 days, significant = 1.5 times or more or 1/1.5 or less of control): −
Behavior of gene caused by administration of chemical substance, Gene No. 2026 ([1]; (A), Unigene Rn.167075, defined direction −, rat liver, oral once daily 28 days): +
Behavior of gene caused by administration of chemical substance, Gene No. 6182 ([1]; (A), Unigene Rn.5834, defined direction +, rat liver, oral once daily 28 days): −
Behavior of gene caused by administration of chemical substance, Gene No. 5600 ([1]; (A), Unigene Rn.9836, defined direction +, rat liver, oral once daily 28 days): −
Behavior of gene caused by administration of chemical substance, Gene No. 1494 ([1]; (B), Unigene Rn.1430, defined direction −, rat liver, oral once daily 28 days): +
Behavior of gene caused by administration of chemical substance, Gene No. 2045 ([1]; (B), Unigene Rn.19329, defined direction +, rat liver, oral once daily 28 days): −
Behavior of gene caused by administration of chemical substance, Gene No. 2203 ([1]; (B), Unigene Rn.21240, defined direction +, rat liver, oral once daily 28 days): −
Behavior of gene caused by administration of chemical substance, Gene No. 533 ([1]; (C), Unigene Rn.106184, defined direction +, rat liver, oral once daily 28 days): −
Behavior of gene caused by administration of chemical substance, Gene No. 725 ([1]; (C), Unigene Rn.108075, defined direction −, rat liver, oral once daily 28 days): −
Behavior of gene caused by administration of chemical substance, Gene No. 1163 ([1]; (C), Unigene Rn.11766, defined direction +, rat liver, oral once daily 28 days): −
Behavior of gene caused by administration of chemical substance, Gene No. 4973 ([1]; (C), Unigene Rn.118529, defined direction −, rat liver, oral once daily 28 days): −
Behavior of gene caused by administration of chemical substance, Gene No. 4095 ([1]; (C), Unigene Rn.119024, defined direction −, rat liver, oral once daily 28 days): −
Behavior of gene caused by administration of chemical substance, Gene No. 1334 [1, 4]: −
Behavior of gene caused by administration of chemical substance, Gene No. 6620 [1, 4]: −
Behavior of gene caused by administration of chemical substance, Gene No. 6303 ([1]; (C), Unigene Rn.123063, defined direction −, rat liver, oral once daily 28 days): −
Behavior of gene caused by administration of chemical substance, Gene No. 5878 ([1]; (C), Unigene Rn.143213, defined direction −, rat liver, oral once daily 28 days): −
Behavior of gene caused by administration of chemical substance, Gene No. 1131 ([1]; (C), Unigene Rn.144946, defined direction −, rat liver, oral once daily 28 days): −
Behavior of gene caused by administration of chemical substance, Gene No. 1562 ([1]; (C), Unigene Rn.14744, defined direction −, rat liver, oral once daily 28 days): −
Behavior of gene caused by administration of chemical substance, Gene No. 1741 ([1]; (C), Unigene Rn.1647, defined direction −, rat liver, oral once daily 28 days): −
Behavior of gene caused by administration of chemical substance, Gene No. 893 ([1]; (C), Unigene Rn.164817, defined direction +, rat liver, oral once daily 28 days): −
Behavior of gene caused by administration of chemical substance, Gene No. 6026 ([1]; (C), Unigene Rn.167685, defined direction −, rat liver, oral once daily 28 days): −
Behavior of gene caused by administration of chemical substance, Gene No. 154 ([1]; (C), Unigene Rn.185941, defined direction −, rat liver, oral once daily 28 days): −
Behavior of gene caused by administration of chemical substance, Gene No. 1993 ([1]; (C), Unigene Rn.18728, defined direction −, rat liver, oral once daily 28 days): −
Behavior of gene caused by administration of chemical substance, Gene No. 813 ([1]; (C), Unigene Rn.201760, defined direction +, rat liver, oral once daily 28 days): +
Behavior of gene caused by administration of chemical substance, Gene No. 2494 ([1]; (C), Unigene Rn.23969, defined direction +, rat liver, oral once daily 28 days): −
Behavior of gene caused by administration of chemical substance, Gene No. 2546 ([1]; (C), Unigene Rn.24561, defined direction −, rat liver, oral once daily 28 days): −
Behavior of gene caused by administration of chemical substance, Gene No. 3776 ([1]; (C), Unigene Rn.43232, defined direction −, rat liver, oral once daily 28 days): −
Behavior of gene caused by administration of chemical substance, Gene No. 3929 ([1]; (C), Unigene Rn.4620, defined direction +, rat liver, oral once daily 28 days): −
Behavior of gene caused by administration of chemical substance, Gene No. 1119 ([1]; (C), Unigene Rn.9757, defined direction +, rat liver, oral once daily 28 days): −
Behavior of gene caused by administration of chemical substance, Gene No. 6742 ([1]; (C), Unigene Rn.9779, defined direction +, rat liver, oral once daily 28 days): −
Behavior of gene caused by administration of chemical substance, Gene No. 5634 ([1]; (C), Unigene Rn.9862, defined direction −, rat liver, oral once daily 28 days): −
Behavior of gene caused by administration of chemical substance, Gene No. 5726 ([1]; (D), Unigene Rn.9939, defined direction −, rat liver, oral once daily 28 days): −

— US20110039721A1, “METHOD FOR PREDICTION ABOUT CARCINOGENICITY OF SUBSTANCE IN RODENT” (Chemicals Evaluation and Research Institute, priority 2007, published 2011)
